Source: patent US9410152B2, “Use of microrna molecules to influence skin pigmentation” (CHANEL PARFUMS BEAUTE, priority 2011, dated 2016)

Key:
MLANA = assay: Western blot of MLANA protein; assay type: cell-based, human; details: MNT-1 cells, 50 nM mimetic, day 12
Method: (§1) 4×10^5 MNT-1 cells were seeded per well in a 6-well plate (#353046, Falcon) on day-1. On day 0, the cells were transfected with 50 nM of mimetic of the miRNAs (hsa-mir-137 # C-300604-07-005, hsa-mir-7 # C-300547-05-0005, hsa-mir-330-5p # C-301082-01-0005, negative control # NC-002000-01-05, Dharmacon), using 5 μL of Lipofectamine 2000 (#1668-019, Invitrogen). On day 1, the medium was changed. On day 3, the cells were trypsinized and seeded at 4×10^5 cells per well. On day 4, the cells were transfected again with 50 nM of mimetic of the miRNAs (see day 0). On day 5, the medium was changed. On day 7, the cells were trypsinized and seeded at 4×10^5 cells per well. On day 8, the cells were transfected with 50 nM of mimetic of the miRNAs (see day 0). On day 9, the medium was changed. On day 10, the cells were trypsinized and divided into two (from one by six wells to two by six wells). On day 12, one six-well plate was used for lysis of the RNA and the other for lysis of the proteins. As positive control of depigmentation, MNT-1 cells were incubated with 3.5 mM of kojic acid (Sigma K3125-5G) for 12 days. The cells were distributed as described and the kojic acid was renewed with the medium every 4 days. The percentage inhibition of the kojic acid is of the order of 10%. […] The concentration of proteins was determined with the BCA Protein Assay (ThermoFisher). […]

protein TYRP1 = assay: Western blot of TYRP1 protein; assay type: cell-based, human; details: MNT-1 cells, 50 nM mimetic, day 12
Method: as §1

[1] = tested on: binding site of miR-330-5p in the 3'UTR of tyrosinase (TYR), WT; assay: Luciferase reporter assay, wild-type (WT) TYR 3'UTR binding site; assay type: cell-based; details: Lu1205 human melanoma cells, 50 nM mimetic co-transfected, relative to control without insert
Description: (§2) The predicted binding site of miR-330-5p in the 3′UTR (position 68-75 of 3′UTR with total length of 393nt) of TYR (NM 000372) including the adjacent bases was designed using the following primers, and was cloned into the pmirGLO reporter vector (Promega) downstream of the region coding for firefly luciferase and using the Pmel and XbaI sites.
(§3) Ligation of the primers LL2086 (sense) and LL2087 (antisense) represents the wild-type (WT) TYR 3′UTR sequence, whereas ligation of the primers LL2088 (sense) and LL2089 (antisense) represents the mutated form of the binding site of the miR-330-Site 5p in the 3′UTR TYR region (MUT). All the constructs were confirmed by sequencing. On D0, 200,000 Lu1205 cells were seeded in 12-well plates. On D1, the Lu1205 cells were transfected with either 30 ng of pmirGLO empty vector (without insert), or 30 ng of WT construct, or 30 ng of MUT construct. At the same time, the cells were co-transfected with 50 nM of mimetic of miR-330-5p (Dharmacon) using Lipofectamine 2000 (Invitrogen). Forty-eight hours after transfection, the cells were collected and analyzed both with firefly luciferase and with Renilla luciferase (included in the pmirGLO vector) using the luciferase double assay (Promega) and a luminometer (Microlumatplus LB96V, Berthold Technologies). […] The relative luciferase activity was calculated, establishing the condition of non-insertion as 1.

[2] = tested on: mutated form of the binding site of miR-330-5p in the 3'UTR TYR region (MUT); assay: Luciferase reporter assay, mutated (MUT) TYR 3'UTR binding site; assay type: cell-based; details: Lu1205 human melanoma cells, 50 nM mimetic co-transfected, relative to control without insert
Description: as §2, §3

Row | Substance | level of protein MLANA (Western blot) (MLANA) | level of protein TYRP1 (Western blot) (protein TYRP1) | luciferase activity, WT construct [1] | luciferase activity, MUT construct [2]
1 | hsa-miR-137: mimetic of miRNA hsa-mir-137 (Dharmacon C-300604-07-005); mature sequence SEQ ID NO: 3 (UUAUUGCUUAAGAAUACGCGUAG; commercial mimic, chemistry not given here; listed as Homo sapiens) | eliminates | reduces the level of protein TYRP1 slightly |  | 
2 | hsa-miR-330-5p: mimetic of miRNA hsa-mir-330-5p (Dharmacon C-301082-01-0005); mature sequence 5'-UCUCUGGGCCUGUGUCUUAGGC-3' (SEQ ID NO: 1) (UCUCUGGGCCUGUGUCUUAGGC; mimic duplex, passenger strand not given here; listed as Homo sapiens) |  |  | considerably reduced | restoration of luciferase activity
